As a reminder, the IC50 is the midpoint of a concentration-inhibition curve. One may read the Ki as the dissociation constant of the complex between target and ligand, obtained from inhibition or displacement.

Experimental findings from ChEMBL document CHEMBL1201862, “PubChem BioAssay data set” (2004) are described below.

Active and inactive are the calls of the source.

Format in all cases: functional
For test [1], the target named is T1, Sentrin-specific protease 7 (Homo sapiens, UniProt Q9BQF6).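 Further: Luminescence-based dose-response confirmation of ultra-high-throughput screening hits, measuring inhibition of SENP7.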
T1 sequence (Q9BQF6 whole entry): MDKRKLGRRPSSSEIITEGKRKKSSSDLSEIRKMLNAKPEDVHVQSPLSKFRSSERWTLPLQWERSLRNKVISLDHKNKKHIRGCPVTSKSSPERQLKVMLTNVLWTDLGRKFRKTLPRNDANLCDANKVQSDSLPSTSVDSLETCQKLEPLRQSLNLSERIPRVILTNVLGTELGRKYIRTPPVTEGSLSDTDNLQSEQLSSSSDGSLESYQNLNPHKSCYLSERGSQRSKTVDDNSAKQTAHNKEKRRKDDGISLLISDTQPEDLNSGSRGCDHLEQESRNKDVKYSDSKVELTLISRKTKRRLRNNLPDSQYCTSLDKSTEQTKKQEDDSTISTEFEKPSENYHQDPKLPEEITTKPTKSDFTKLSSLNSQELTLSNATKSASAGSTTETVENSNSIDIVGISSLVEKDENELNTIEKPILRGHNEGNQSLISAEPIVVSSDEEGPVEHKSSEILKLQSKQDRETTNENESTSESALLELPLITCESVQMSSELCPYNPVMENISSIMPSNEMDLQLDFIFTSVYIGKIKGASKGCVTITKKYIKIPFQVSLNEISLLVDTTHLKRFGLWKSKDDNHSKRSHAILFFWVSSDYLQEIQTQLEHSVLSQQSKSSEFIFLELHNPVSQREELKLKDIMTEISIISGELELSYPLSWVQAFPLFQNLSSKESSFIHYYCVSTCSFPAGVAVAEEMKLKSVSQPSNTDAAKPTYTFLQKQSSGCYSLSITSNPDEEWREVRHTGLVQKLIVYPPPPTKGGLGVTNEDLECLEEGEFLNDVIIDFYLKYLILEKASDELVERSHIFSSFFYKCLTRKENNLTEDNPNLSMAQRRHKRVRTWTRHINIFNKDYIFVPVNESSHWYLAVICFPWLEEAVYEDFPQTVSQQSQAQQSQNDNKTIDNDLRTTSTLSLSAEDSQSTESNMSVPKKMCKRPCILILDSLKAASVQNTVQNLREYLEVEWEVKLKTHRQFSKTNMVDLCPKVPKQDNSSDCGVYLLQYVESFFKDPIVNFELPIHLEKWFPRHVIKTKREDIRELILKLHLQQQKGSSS

Test [2] addresses T2, Sentrin-specific protease 6 (Homo sapiens, UniProt Q9GZR1).
T2 sequence (Q9GZR1 whole entry): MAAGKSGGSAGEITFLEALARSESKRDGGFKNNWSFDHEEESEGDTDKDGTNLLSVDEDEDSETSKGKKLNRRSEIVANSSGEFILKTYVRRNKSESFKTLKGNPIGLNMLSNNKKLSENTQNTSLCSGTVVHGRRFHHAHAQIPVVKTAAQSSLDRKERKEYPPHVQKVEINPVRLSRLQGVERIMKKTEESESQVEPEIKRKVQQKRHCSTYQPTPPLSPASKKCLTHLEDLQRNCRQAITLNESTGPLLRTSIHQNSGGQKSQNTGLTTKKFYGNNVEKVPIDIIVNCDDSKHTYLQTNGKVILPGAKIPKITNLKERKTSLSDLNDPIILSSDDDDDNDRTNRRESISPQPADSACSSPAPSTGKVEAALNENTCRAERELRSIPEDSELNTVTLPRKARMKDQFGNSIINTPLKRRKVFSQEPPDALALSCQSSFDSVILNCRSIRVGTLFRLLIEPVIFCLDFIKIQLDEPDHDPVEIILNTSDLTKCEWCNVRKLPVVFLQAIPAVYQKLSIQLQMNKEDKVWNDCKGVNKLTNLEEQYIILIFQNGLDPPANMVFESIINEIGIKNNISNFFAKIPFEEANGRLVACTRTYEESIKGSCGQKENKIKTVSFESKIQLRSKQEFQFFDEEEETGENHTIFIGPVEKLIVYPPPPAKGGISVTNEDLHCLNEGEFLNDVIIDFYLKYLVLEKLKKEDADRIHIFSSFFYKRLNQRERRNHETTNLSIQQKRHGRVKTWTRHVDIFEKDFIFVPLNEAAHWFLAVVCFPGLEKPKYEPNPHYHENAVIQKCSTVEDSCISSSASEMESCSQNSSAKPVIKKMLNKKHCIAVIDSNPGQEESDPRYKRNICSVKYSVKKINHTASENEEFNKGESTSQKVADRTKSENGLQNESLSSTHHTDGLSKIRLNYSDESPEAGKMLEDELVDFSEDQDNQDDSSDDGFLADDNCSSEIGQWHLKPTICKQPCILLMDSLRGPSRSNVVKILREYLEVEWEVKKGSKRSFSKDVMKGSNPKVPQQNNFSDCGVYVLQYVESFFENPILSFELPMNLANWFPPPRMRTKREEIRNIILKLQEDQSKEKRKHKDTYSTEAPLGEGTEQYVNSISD

Test [3] addresses T3, Tyrosine-protein kinase receptor TYRO3 (Homo sapiens, UniProt Q06418).
T3 sequence (Q06418 whole entry): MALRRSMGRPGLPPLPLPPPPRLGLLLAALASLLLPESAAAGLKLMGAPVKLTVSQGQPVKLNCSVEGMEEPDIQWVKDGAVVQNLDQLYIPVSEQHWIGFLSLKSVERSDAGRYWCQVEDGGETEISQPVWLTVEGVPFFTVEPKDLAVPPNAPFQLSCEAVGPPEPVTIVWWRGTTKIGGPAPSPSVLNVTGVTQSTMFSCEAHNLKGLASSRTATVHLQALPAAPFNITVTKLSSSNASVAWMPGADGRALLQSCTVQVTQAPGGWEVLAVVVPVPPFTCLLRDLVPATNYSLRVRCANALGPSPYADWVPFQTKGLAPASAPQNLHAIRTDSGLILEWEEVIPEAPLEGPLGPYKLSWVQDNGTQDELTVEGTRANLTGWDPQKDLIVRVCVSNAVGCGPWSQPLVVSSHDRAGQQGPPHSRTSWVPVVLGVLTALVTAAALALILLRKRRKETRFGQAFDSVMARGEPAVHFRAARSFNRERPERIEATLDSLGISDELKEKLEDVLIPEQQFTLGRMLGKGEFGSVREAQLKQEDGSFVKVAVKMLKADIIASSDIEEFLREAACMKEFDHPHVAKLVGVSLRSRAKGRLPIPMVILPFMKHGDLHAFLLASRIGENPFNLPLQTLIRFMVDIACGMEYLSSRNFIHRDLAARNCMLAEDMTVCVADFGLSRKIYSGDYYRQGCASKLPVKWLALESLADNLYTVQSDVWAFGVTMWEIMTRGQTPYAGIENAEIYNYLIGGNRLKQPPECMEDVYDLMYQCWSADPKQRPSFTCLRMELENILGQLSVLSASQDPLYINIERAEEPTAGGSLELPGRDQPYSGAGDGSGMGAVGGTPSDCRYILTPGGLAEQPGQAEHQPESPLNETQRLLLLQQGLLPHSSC

Test [4] has as its target Dual specificity protein kinase CLK4 (Homo sapiens, UniProt Q9HAZ1).

Chain of Dual specificity protein kinase CLK4 (Q9HAZ1 whole entry): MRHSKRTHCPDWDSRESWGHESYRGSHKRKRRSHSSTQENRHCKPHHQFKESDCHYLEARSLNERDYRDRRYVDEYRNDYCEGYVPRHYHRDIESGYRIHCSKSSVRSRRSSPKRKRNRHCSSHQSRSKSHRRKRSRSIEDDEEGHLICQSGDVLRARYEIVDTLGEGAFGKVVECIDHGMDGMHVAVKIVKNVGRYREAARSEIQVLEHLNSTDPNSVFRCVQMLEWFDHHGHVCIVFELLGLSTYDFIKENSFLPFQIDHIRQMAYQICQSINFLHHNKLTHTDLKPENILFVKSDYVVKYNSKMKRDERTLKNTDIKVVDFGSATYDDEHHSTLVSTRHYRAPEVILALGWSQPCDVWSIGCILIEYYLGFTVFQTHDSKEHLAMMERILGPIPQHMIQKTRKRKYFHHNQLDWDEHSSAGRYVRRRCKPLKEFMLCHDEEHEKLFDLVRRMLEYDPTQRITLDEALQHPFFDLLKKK

As to `O=C(NC1=C(Nc2ccc(F)cc2)C(=O)c2ccccc2C1=O)c1ccc(Cl)cc1`, the IC50 in test [1] was 24.3 µM (active); in test [2], 8.56 µM (active).

As for `Oc1nc(Nc2ccc(F)cc2)cc2ccccc12`, the IC50 in test [1] was 7.05 µM (active); in test [2], 2.99 µM (active).

For the compound `CN(C)c1cc(N/N=C\c2ccccc2)nc(N(C)C)n1`, the IC50 is 77.6 µM (active) in test [1] and 6 µM (active) in test [2].

On to `O=C1Nc2cc(-c3ccc(O)cc3)ccc2C1=Cc1ccc[nH]1`, for which the figures for the Ki in test [3] and in test [4] were 2 µM (active) and 1.26 µM (active), respectively.

`NC(COc1cncc(-c2ccc3c(c2)C(=Cc2ccc[nH]2)C(=O)N3)c1)Cc1ccccc1` (configuration not stated): the Ki in test [3] was 0.0251 µM (active); in test [4], 0.000316 µM (active).

With `O=C1Cc2cc(-c3ccccc3)cnc2N1`, the Ki in test [3] is 20 µM (active); in test [4], 6.31 µM (active).
